Molecules are shown by their SMILES. pIC50: −log10 of the molar value.
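Also: spheroids exposed to the agents for seven days before readout.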

One assay has as its system 435261-313-R-J1-PDC complex spheroid viability. The assay can be described thus: Anticancer human tumor 435261-313-R-J1-PDC patient-derived colon adenocarcinoma cell line growth inhibition [GQUAD]. The conditions noted are these: curve of first compound; second compound 0.0316 µM. Summed up:
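Multi-cell-type spheroids of tumor cells with HUVEC and mesenchymal stem cells, treated with drug combinations. Concentrations descend in half-log steps from near clinical Cmax, or from 10 microM where Cmax is unknown; viability read-out.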
With `CC(C)n1c(=O)n(C)c2cnc3cc(F)c(-c4ccc(OCCCN5CCCCC5)nc4)cc3c21` + CN(C)c1ccc(Nc2c3ccc(NC(=O)CCN4CCCC4)cc3nc3cc(NC(=O)CCN4CCCC4)ccc23)cc1, the negative logarithm of the IC50 (pIC50) is less than 5.00.

As for `CC1COCCN1c1cc(-c2ccnn2C)c2ccnc(-c3ccn[nH]3)c2n1` (stereo unspecified) + CN(C)c1ccc(Nc2c3ccc(NC(=O)CCN4CCCC4)cc3nc3cc(NC(=O)CCN4CCCC4)ccc23)cc1, the negative-log IC50 (pIC50) was 6.09.

`CC1COCCN1c1cc(C2(S(C)(=N)=O)CC2)nc(-c2ccnc3[nH]ccc23)n1` (stereo unspecified) + CN(C)c1ccc(Nc2c3ccc(NC(=O)CCN4CCCC4)cc3nc3cc(NC(=O)CCN4CCCC4)ccc23)cc1: the pIC50 is less than 5.00.

In the case of `COc1ccc([C@@H](O)c2cc(-c3ncnc4cc(N5CCOCC5)ccc34)c(F)cc2Cl)nn1` + CN(C)c1ccc(Nc2c3ccc(NC(=O)CCN4CCCC4)cc3nc3cc(NC(=O)CCN4CCCC4)ccc23)cc1, the pIC50 is 5.38.

Turning to `O=C(c1cc(Cc2n[nH]c(=O)c3ccccc23)ccc1F)N1CCN(C(=O)C2CC2)CC1` + CN(C)c1ccc(Nc2c3ccc(NC(=O)CCN4CCCC4)cc3nc3cc(NC(=O)CCN4CCCC4)ccc23)cc1, the pIC50 was less than 5.00.

Still in this assay, the particulars now being: curve of first compound; second compound 0.1 µM.
Take `CC(C)n1c(=O)n(C)c2cnc3cc(F)c(-c4ccc(OCCCN5CCCCC5)nc4)cc3c21` + CN(C)c1ccc(Nc2c3ccc(NC(=O)CCN4CCCC4)cc3nc3cc(NC(=O)CCN4CCCC4)ccc23)cc1: the negative-log IC50 (pIC50) is 5.15.

As to `CC1COCCN1c1cc(-c2ccnn2C)c2ccnc(-c3ccn[nH]3)c2n1` (stereo unspecified) + CN(C)c1ccc(Nc2c3ccc(NC(=O)CCN4CCCC4)cc3nc3cc(NC(=O)CCN4CCCC4)ccc23)cc1, the pIC50 is 6.30.

For the compound `CC1COCCN1c1cc(C2(S(C)(=N)=O)CC2)nc(-c2ccnc3[nH]ccc23)n1` (stereo unspecified) + CN(C)c1ccc(Nc2c3ccc(NC(=O)CCN4CCCC4)cc3nc3cc(NC(=O)CCN4CCCC4)ccc23)cc1, the pIC50 is less than 5.00.

Regarding `COc1ccc([C@@H](O)c2cc(-c3ncnc4cc(N5CCOCC5)ccc34)c(F)cc2Cl)nn1` + CN(C)c1ccc(Nc2c3ccc(NC(=O)CCN4CCCC4)cc3nc3cc(NC(=O)CCN4CCCC4)ccc23)cc1, the pIC50 is 5.37.

As for `O=C(c1cc(Cc2n[nH]c(=O)c3ccccc23)ccc1F)N1CCN(C(=O)C2CC2)CC1` + CN(C)c1ccc(Nc2c3ccc(NC(=O)CCN4CCCC4)cc3nc3cc(NC(=O)CCN4CCCC4)ccc23)cc1, the pIC50 is less than 5.00.

The assay is the same for the next values; noted with them: curve of first compound; second compound 0.316 µM.
`CC(C)n1c(=O)n(C)c2cnc3cc(F)c(-c4ccc(OCCCN5CCCCC5)nc4)cc3c21` + CN(C)c1ccc(Nc2c3ccc(NC(=O)CCN4CCCC4)cc3nc3cc(NC(=O)CCN4CCCC4)ccc23)cc1: the pIC50 is 5.16.

In the case of `CC1COCCN1c1cc(-c2ccnn2C)c2ccnc(-c3ccn[nH]3)c2n1` (stereo unspecified) + CN(C)c1ccc(Nc2c3ccc(NC(=O)CCN4CCCC4)cc3nc3cc(NC(=O)CCN4CCCC4)ccc23)cc1, the negative logarithm of the IC50 (pIC50) is 6.14.

Take `CC1COCCN1c1cc(C2(S(C)(=N)=O)CC2)nc(-c2ccnc3[nH]ccc23)n1` (stereo unspecified) + CN(C)c1ccc(Nc2c3ccc(NC(=O)CCN4CCCC4)cc3nc3cc(NC(=O)CCN4CCCC4)ccc23)cc1: the pIC50 was less than 5.00.

Consider `COc1ccc([C@@H](O)c2cc(-c3ncnc4cc(N5CCOCC5)ccc34)c(F)cc2Cl)nn1` + CN(C)c1ccc(Nc2c3ccc(NC(=O)CCN4CCCC4)cc3nc3cc(NC(=O)CCN4CCCC4)ccc23)cc1, for which the pIC50 is 5.62.

Turning to `O=C(c1cc(Cc2n[nH]c(=O)c3ccccc23)ccc1F)N1CCN(C(=O)C2CC2)CC1` + CN(C)c1ccc(Nc2c3ccc(NC(=O)CCN4CCCC4)cc3nc3cc(NC(=O)CCN4CCCC4)ccc23)cc1, the pIC50 was less than 5.00.

The assay is the same for the next values; noted with them: curve of first compound; second compound 1 µM.
Consider `CC(C)n1c(=O)n(C)c2cnc3cc(F)c(-c4ccc(OCCCN5CCCCC5)nc4)cc3c21` + CN(C)c1ccc(Nc2c3ccc(NC(=O)CCN4CCCC4)cc3nc3cc(NC(=O)CCN4CCCC4)ccc23)cc1, for which the pIC50 is 5.12.

`CC1COCCN1c1cc(-c2ccnn2C)c2ccnc(-c3ccn[nH]3)c2n1` (stereo unspecified) + CN(C)c1ccc(Nc2c3ccc(NC(=O)CCN4CCCC4)cc3nc3cc(NC(=O)CCN4CCCC4)ccc23)cc1: the pIC50 was 5.99.

Turning to `CC1COCCN1c1cc(C2(S(C)(=N)=O)CC2)nc(-c2ccnc3[nH]ccc23)n1` (stereo unspecified) + CN(C)c1ccc(Nc2c3ccc(NC(=O)CCN4CCCC4)cc3nc3cc(NC(=O)CCN4CCCC4)ccc23)cc1, the negative logarithm of the IC50 (pIC50) is less than 5.00.

As to `COc1ccc([C@@H](O)c2cc(-c3ncnc4cc(N5CCOCC5)ccc34)c(F)cc2Cl)nn1` + CN(C)c1ccc(Nc2c3ccc(NC(=O)CCN4CCCC4)cc3nc3cc(NC(=O)CCN4CCCC4)ccc23)cc1, the pIC50 was 5.64.

As for `O=C(c1cc(Cc2n[nH]c(=O)c3ccccc23)ccc1F)N1CCN(C(=O)C2CC2)CC1` + CN(C)c1ccc(Nc2c3ccc(NC(=O)CCN4CCCC4)cc3nc3cc(NC(=O)CCN4CCCC4)ccc23)cc1, the pIC50 is less than 5.00.

The assay is the same for the next values; noted with them: curve of first compound; second compound 3.16 µM.
For the compound `CC(C)n1c(=O)n(C)c2cnc3cc(F)c(-c4ccc(OCCCN5CCCCC5)nc4)cc3c21` + CN(C)c1ccc(Nc2c3ccc(NC(=O)CCN4CCCC4)cc3nc3cc(NC(=O)CCN4CCCC4)ccc23)cc1, the negative-log IC50 (pIC50) is 6.78.

For the compound `CC1COCCN1c1cc(-c2ccnn2C)c2ccnc(-c3ccn[nH]3)c2n1` (stereo unspecified) + CN(C)c1ccc(Nc2c3ccc(NC(=O)CCN4CCCC4)cc3nc3cc(NC(=O)CCN4CCCC4)ccc23)cc1, the pIC50 was 6.84.

As for `CC1COCCN1c1cc(C2(S(C)(=N)=O)CC2)nc(-c2ccnc3[nH]ccc23)n1` (stereo unspecified) + CN(C)c1ccc(Nc2c3ccc(NC(=O)CCN4CCCC4)cc3nc3cc(NC(=O)CCN4CCCC4)ccc23)cc1, the pIC50 was less than 5.00.

With `COc1ccc([C@@H](O)c2cc(-c3ncnc4cc(N5CCOCC5)ccc34)c(F)cc2Cl)nn1` + CN(C)c1ccc(Nc2c3ccc(NC(=O)CCN4CCCC4)cc3nc3cc(NC(=O)CCN4CCCC4)ccc23)cc1, the negative logarithm of the IC50 (pIC50) is 6.35.

With `O=C(c1cc(Cc2n[nH]c(=O)c3ccccc23)ccc1F)N1CCN(C(=O)C2CC2)CC1` + CN(C)c1ccc(Nc2c3ccc(NC(=O)CCN4CCCC4)cc3nc3cc(NC(=O)CCN4CCCC4)ccc23)cc1, the pIC50 is less than 5.00.

Staying with this assay, now noted: curve of first compound; second compound 10 µM.
As for `CC(C)n1c(=O)n(C)c2cnc3cc(F)c(-c4ccc(OCCCN5CCCCC5)nc4)cc3c21` + CN(C)c1ccc(Nc2c3ccc(NC(=O)CCN4CCCC4)cc3nc3cc(NC(=O)CCN4CCCC4)ccc23)cc1, the pIC50 is 7.22.

For orientation: pIC50 means the negative decadic logarithm of the IC50, by convention in mol/L.

The record behind these values is PubChem BioAssay AID2060494 (Molecular Pharmacology Branch, DTP, NCI, 2025).
